Test results: patent US20100028402A1, “NANOPARTICLE-BASED ANTICOAGULANT” (priority 2006, published 2010)
≈ marks a conversion by molar mass, not a printed value.

How the values were obtained:
[1] = test system: red blood cells (pooled normal human whole blood); assay: Hemolysis assay; format: cell-based
Excerpt: Hemolysis Assay. This assay employs a protocol for quantitative colorimetric determination of hemoglobin in whole blood (total blood hemoglobin—TBH) and hemoglobin released into plasma (plasma free hemoglobin—PFH) when blood was exposed to nanoparticles. In brief, hemoglobin and its derivatives, except sulfhemoglobin, were oxidized to methemoglobin by ferricyanide in the presence of alkali. Cyanmethemoglobin (CMH) was formed from the methemoglobin by its reaction with cyanide (Drabkin's solution) and then detected by spectrophotometer set at 540 nm. The hemoglobin standard was used to build a standard curve covering the concentration range from 0.025 to 0.80 mg/mL and to prepare quality control samples at low (0.0625 mg/mL), mid (0.125 mg/mL) and high (0.625 mg/mL) concentrations to monitor assay performance. Required sample volume was 300 μL, e.g., 100 μL per test-replicate. The results expressed as percent of hemolysis were used to evaluate the acute in vitro hemolytic properties of nanoparticles.
The following reagents were used in the assay: cyanmethemoglobin (CMH) reagent, (StanBio, cat. # 0321-380); hemoglobin standard (StanBio, cat. # 0325-006); Ca/Mg free DPBS (Sigma, catalogue no: D8537); pooled normal human whole blood anti-coagulated with Li-heparin; poly-L-Lysine hydrobromide (MW 150 000-300 000, Sigma, cat #P1399); polyethylene glycol (av. MW 8 000, Sigma cat # P1458); and distilled water. It is contemplated that equivalent reagents from other vendors can be used.
The positive control was prepared by dissolving poly-L-Lysine powder to a final concentration of 1% (10 mg/mL) in sterile distilled water. […] Alternatively, 1% TritonX-100 in water was used as a positive control. […]
Whole blood was collected in tubes containing Li-heparin as anti coagulant from at least three donors. […] The plate was then read by use of a plate reader at an absorbance of 540 nm to determine hemoglobin concentration. […] If calculated PFH concentration was below 1 mg/mL pooled whole blood was diluted with Ca^2+/Mg^2+ free DPBS to adjust total hemoglobin concentration to 10±2 mg/mL. […]

[2] = test system: platelets (human platelet-rich plasma); assay: Platelet aggregation assay, with and without collagen; format: cell-based
Procedure: Platelet Aggregation Assay. […] The concentration of the nanoparticle was determined by considering the following parameters: i) the solubility of the nanoparticle in a biocompatible buffer; ii) maintaining the pH within a physiological range (pH 7±0.5); iii) availability of nanoparticle; and iv) stability of the nanoparticle. […] The assay required 150 μL of test material.
Platelet-rich plasma (PRP) was obtained from fresh pooled human whole blood by spinning freshly drawn blood for 8 minutes at 200 g. PRP was then pooled from at least 3 different donors. It is to be noted that during phlebotomy, the first 2 mLs of blood was discarded. Further, PRP was prepared as soon as possible from the time of obtaining the blood sample and no longer than 1 hour after blood collection. PRP was kept at room temperature and was used within 4 hours of its isolation. Exposure of either the blood or PRP to cold temperatures (<20° C.) was avoided because such temperatures induce platelet aggregations.
Three test tubes for the test sample, two tubes for the positive control and two tubes for the negative control were prepared. Twenty-five microliters of the test sample, positive control or negative control were added to the respective tubes. These samples provided data on the ability of the test nanoparticle to induced platelet aggregation. A second set of tubes were prepared for test-particles plus collagen. These set of tubes provided data on the ability of test-particles to interfere with platelet aggregation caused by collagen. For this set of studies, 25 μL of the positive control and 25 μL of the test nanoparticle was added to each “test-particles plus collagen” tube. Further, 50 μL of the negative control was added to each negative control tube and 25 μL of the positive control and 25 μL of RPMI was added to each positive control tube. In addition, one control tube with 100 μL of phosphate buffer saline (PBS) or RPMI and 25 μL of the nanoparticles was prepared to determine any potential particle interference with instrument counting procedure.
PRP was added to the appropriate tubes, samples were briefly vortexed and then incubated with control or test sample for 15 minutes at a nominal temperature of 37° C. After the incubation period, 10 mL of Isoton II diluent was added into blood cell counter vials. Two vials were prepared for each sample replicate. Twenty microliters of PRP treated with positive control, negative control or test-nanoparticle was then added to the each vial. Vials were covered and gently inverted to mix the diluted samples. PRP was analyzed by a Z2 Particle Count and Size Analyzer (Beckman Coulter) to determine the number of active platelets. Percent Coefficient of Variation (% CV) was equal to the standard deviation divided by the mean multiplied by 100. Platelet count=(5×RC)/100=# platelets×10^9/L. Further, percent platelet aggregation (% aggregation)=Control Platelet Count−Sample Platelet Count/Control Platelet Count×100). The percent coefficient of variation for each control and test sample was within 25%. […] Percent platelet aggregation above 20% was considered to be positive (for example, test-particle induces platelet aggregation).

[3] = MTT and LDH cytotoxicity assays, kidney cells; format: cell-based, porcine; conditions: pig, LLC-PK1 porcine proximal tubule epithelial cells, treated 6, 24 or 48 hours, 1.0 to 0.004 mg/mL, read-out: LC50 (the source's name)
Procedure: (§1) The cytotoxicity of AF1, AF3, C3, DF1 and NCL22 on porcine proximal tubule epithelial cells (LLC-PK1) was determined by a method that includes a 3-(4,5-Dimethyl-2-thiazolyl)-2,5-diphenyl-2H-tetrazolium bromide (MTT) reduction and lactate dehydrogenase (LDH) release assays. MTT that is a yellow water-soluble tetrazolium dye that is reduced by live cells to a water-insoluble purple formazan. The amount of formazan can be determined by solubilizing the formazan in DMSO and measuring it spectrophotometrically. Comparisons between the spectra of treated and untreated cells can give a relative estimation of cytotoxicity. (See, Alley et al. Cancer Res. 48: 589-60, 1988 which is hereby incorporated by reference in its entirety). The LDH assay is based upon LDH (a cytoplasmic enzyme that is released into the […] upon cell lysis) oxidizing lactate to pyruvate, pyruvate reacting with a tetrazolium salt INT to form formazan, and the water-soluble formazan dye being detected spectrophotometrically. Thus, the LDH assay is a measure of membrane integrity. […]
(§2) Briefly, for assays employing porcine kidney epithelial cells, such cells were plated at […] in a 96 well plate. […] Cytotoxicity was then determined by MTT and LDH assays.

[4] = test system: porcine proximal tubule epithelial cells (LLC-PK1); assay: MTT and LDH cytotoxicity assays, kidney cells; format: cell-based; conditions: 1.0 to 0.004 mg/mL
Procedure: as §1, §2

[5] = Nanoparticle dimension; format: physicochemical
[6] = test system: murine bone marrow myeloid precursors; assay: CFU-GM assay (myelosuppression); conditions: FIG. 3
Procedure: CFU-GM Assay. The granulocyte-macrophage colony-forming units (CFU-GM) assay employed murine bone marrow (BM). […] The BM cells were isolated from 8-12 week old mice and cultured in methylcellulose-based medium supplemented with cytokines (mSCF, mIL-3 and hIL-6) either untreated (baseline) or treated with nanoparticles (test). These cytokines promoted formation of granulocyte and macrophage (CFU-GM) colonies. After twelve days of incubation at 37° C. in the presence of 5% CO2 and 95% humidity number of colonies was quantified in baseline and test samples. A percent of CFU inhibition was then calculated for each test sample. The basic protocol for BM isolation and culture was adopted from technical manual # 28405 developed by StemCell Technologies Inc. The assay required 450 μL of a test-nanoparticles, MethoCult medium (StemCell Technologies Inc cat. # 03534), Fetal Bovine Serum prescreened for hematopoietic stem cells (StemCell Technologies Inc. cat. # 06200), Iscove's MDM with 2% FBS (StemCell Technologies Inc cat. # 07700), sterile distilled water, blunt-end 16 gauge needles (StemCell Technologies Inc cat. # 03534 2.6), cisplatin (positive control; Sigma cat #P4394), Sterile Ca^2+/Mg^2+-free DPBS (negative control; Sigma D8537). […]
The CFU-GM assay required 450 μL of nanoparticles, e.g., three 150 μL samples, each of which is analyzed in duplicate. […]

## O=C(O)C1(C(=O)O)C2c3ccc4c5c3-c3c6c7c8c9c3C53C(C(=O)O)(C(=O)O)C35C(=C4)Cc3cc4c(c-9c35)C83C(CC4)(CC7CC621)C3(C(=O)O)C(=O)O (stereo not shown) [C3, C60(>C(COOH)2)3]
[1]; human, 3 h
  percent of hemolysis: less than 2%
[2]; compound 200 μg/mL, collagen 20 μg/mL (collagen alone greater than 60%), FIG. 4
  collagen-induced platelet aggregation in presence of compound: approximately 15%
[3]
  CC50: 207 µg/mL (≈ 293 µM)
[4]
  toxicity to kidney cells: minimally toxic
[5]
  dimension: 1.57 nm
[6]; with cisplatin (50 μM)
  protection of bone marrow cells from myelosuppression caused by cisplatin: none of the tested substituted fullerenes were able to protect the bone marrow cells

## CC(=O)Oc1ccccc1C(=O)O [aspirin]
[2]; 167 μg/mL, collagen 25 μg/mL, FIG. 5
  effect on collagen-induced platelet aggregation: significant reduction in collagen-induced platelet aggregation
[2]; 167, 33.4 and 16.7 μg/mL, collagen 25 μg/mL, FIG. 5
  dose dependence of inhibition of collagen-induced platelet aggregation: dose dependent

## N.N.[Cl][Pt][Cl] [cisplatin]
[6]; positive control, 50 μM
  myelosuppressive effect: myelosuppression caused by cisplatin treatment

## Triton X-100
[1]
  hemolysis by positive control: 90±5%
  hemolysis of the red blood cells: greater than 80%

## collagen
[2]; collagen 20 μg/mL, FIG. 4
  platelet aggregation induced: greater than 60%
[2]; collagen 25 μg/mL, FIG. 5
  platelet aggregation induced: greater than 80%
